According to US12714688B2, “Margaric acid decreases PIEZ02-mediated pain” (The United States of America, as represented by The …, priority 2020, dated 2026):
“Also recorded” adds a separate entry of the source.

Columns and labels:
[1] = tested on: mechano-activated currents of rat DRG neurons; experiment: Whole-cell patch-clamp of mechano-activated currents in rat DRG neurons; details: 300 μM for 18 h
[2] = tested on: human iPSC-derived neurons; experiment: Voltage-activated currents in human iPSC-derived neurons; type: cell-based; details: 300 μM vs control
From the text: Human iPSC-derived neurons: For generating human peripheral sensory neuron cultures, a version of the healthy control WTC11 iPSC line was used. This line was previously engineered to harbor a doxycycline-inducible NGN2-BRN3A construct that enables rapid and efficient sensory neuron differentiation. Undifferentiated iPSCs were maintained in E8 flex medium (invitrogen) on polystyrene plates coated with Matrigel® (Corning). The medium was exchanged every 1-3 days, and the cells were passaged every 4-7 days with Accutase® (Invitrogen) and plated overnight with 10 μM of the ROCK-inhibitor Y-27632 (Tocris). For sensory neuron differentiation, iPSCs were seeded at 20,000 cells·(cm2)−1 in neural differentiation medium (NDM) on Matrigel®-coated plates. The cells were then re-plated after 48 hours at 50,000 cells·(cm^2)^−1 onto dishes coated with polyethylenimine (Sigma-Aldrich) and laminin (Invitrogen). NDM consisted of (all from Invitrogen) 1:1 DMEM/F12 and Neurobasal™ medium supplemented with N2, B27, and GlutaMAX™ at manufacturer-recommended dilution. 2 μg·ml^−1 doxycycline (Clontech) was included in the medium for the duration of the culture, 10 μM. Y-27632 was supplemented for the first 48 hours, and the following neurotrophic factors were added from day 8 onward at 10 ng/ml each (all from R&D systems): BDNF, GDNF, β-NGF, and NT-3. […]

mice [3] = experiment: Hargreaves radiant heat test after daily hind paw injection; type: in vivo, mouse; details: MA 5 mM injected daily into hind paw for 7 days
Protocol: (§1) Mice behavior: MA solution: MA was prepared in sterile Dulbecco's phosphate buffered saline, with 70 g/L fatty acid free bovine serum albumin (BSA; Sigma), and MA to a final concentration of 5 mM. The solution was filtered to avoid undissolved materials.
(§2) Subjects: For the experiment 8-12 weeks old male and female C57B16/J mice (N=12; control n=6; male=3, female=3) MA (n=6; male=3, female=3) per experiment were used. Mice were housed under a 12 hr light dark cycle and granted access to food and water ad libitum.
Treatment: Animals were put in two groups (control and MA) and given injections in the plantar of the left hind paw for 7 days prior behavioral assessment. Injections were given as follows: Mouse is restrained by their tail, foot, and over shoulders scruff. The compound is delivered using a 3/10 cc insulin syringe into the plantar surface of the back foot of each mouse. The beveled needle is inserted at a 35-40° angle and 20-50 μl of the compound is injected subcutaneously. The needle is held in place for several seconds before being removed and the animal is returned to its home cage. […]
Thermal threshold (Hargreaves test): Animals were placed in small enclosures over a glass plate heated to 32° C. […] The latency for each rodent to withdraw the paw is recorded with three stimulus presentations administered per paw. […]

mice [4] = experiment: Von Frey test after acute inflammation by topical AITC; type: in vivo, mouse; details: MA treatment for 7 days, then AITC
Protocol: as §1, §2
Treatment: Animals were put in two groups (control and MA) and given injections in the plantar of the left hind paw for 7 days prior behavioral assessment. Injections were given as follows: Mouse is restrained by their tail, foot, and over shoulders scruff. […]
Mechanical threshold (Von Frey test): Punctate mechanical allodynia was measured using Von Frey monofilaments (Stoelting, Inc.) in varying grams of force (0.008-1 g). Animals were placed in small enclosures over a wire mesh and the plantar of the hind paw was poked with a filament and responses were recorded. Withdrawal responses were recorded when the animal lifted, shook, or licked the paw in response to stimulus presentation. […]

[5] = molecular target: endogenous PIEZO2 currents in MCC13 (Homo sapiens, UniProt Q9H5I5); experiment: Whole-cell patch-clamp of mechanically stimulated MCC13 cells; details: 300 μM
endogenous PIEZO2 currents in MCC13, sequence (Q9H5I5 whole entry): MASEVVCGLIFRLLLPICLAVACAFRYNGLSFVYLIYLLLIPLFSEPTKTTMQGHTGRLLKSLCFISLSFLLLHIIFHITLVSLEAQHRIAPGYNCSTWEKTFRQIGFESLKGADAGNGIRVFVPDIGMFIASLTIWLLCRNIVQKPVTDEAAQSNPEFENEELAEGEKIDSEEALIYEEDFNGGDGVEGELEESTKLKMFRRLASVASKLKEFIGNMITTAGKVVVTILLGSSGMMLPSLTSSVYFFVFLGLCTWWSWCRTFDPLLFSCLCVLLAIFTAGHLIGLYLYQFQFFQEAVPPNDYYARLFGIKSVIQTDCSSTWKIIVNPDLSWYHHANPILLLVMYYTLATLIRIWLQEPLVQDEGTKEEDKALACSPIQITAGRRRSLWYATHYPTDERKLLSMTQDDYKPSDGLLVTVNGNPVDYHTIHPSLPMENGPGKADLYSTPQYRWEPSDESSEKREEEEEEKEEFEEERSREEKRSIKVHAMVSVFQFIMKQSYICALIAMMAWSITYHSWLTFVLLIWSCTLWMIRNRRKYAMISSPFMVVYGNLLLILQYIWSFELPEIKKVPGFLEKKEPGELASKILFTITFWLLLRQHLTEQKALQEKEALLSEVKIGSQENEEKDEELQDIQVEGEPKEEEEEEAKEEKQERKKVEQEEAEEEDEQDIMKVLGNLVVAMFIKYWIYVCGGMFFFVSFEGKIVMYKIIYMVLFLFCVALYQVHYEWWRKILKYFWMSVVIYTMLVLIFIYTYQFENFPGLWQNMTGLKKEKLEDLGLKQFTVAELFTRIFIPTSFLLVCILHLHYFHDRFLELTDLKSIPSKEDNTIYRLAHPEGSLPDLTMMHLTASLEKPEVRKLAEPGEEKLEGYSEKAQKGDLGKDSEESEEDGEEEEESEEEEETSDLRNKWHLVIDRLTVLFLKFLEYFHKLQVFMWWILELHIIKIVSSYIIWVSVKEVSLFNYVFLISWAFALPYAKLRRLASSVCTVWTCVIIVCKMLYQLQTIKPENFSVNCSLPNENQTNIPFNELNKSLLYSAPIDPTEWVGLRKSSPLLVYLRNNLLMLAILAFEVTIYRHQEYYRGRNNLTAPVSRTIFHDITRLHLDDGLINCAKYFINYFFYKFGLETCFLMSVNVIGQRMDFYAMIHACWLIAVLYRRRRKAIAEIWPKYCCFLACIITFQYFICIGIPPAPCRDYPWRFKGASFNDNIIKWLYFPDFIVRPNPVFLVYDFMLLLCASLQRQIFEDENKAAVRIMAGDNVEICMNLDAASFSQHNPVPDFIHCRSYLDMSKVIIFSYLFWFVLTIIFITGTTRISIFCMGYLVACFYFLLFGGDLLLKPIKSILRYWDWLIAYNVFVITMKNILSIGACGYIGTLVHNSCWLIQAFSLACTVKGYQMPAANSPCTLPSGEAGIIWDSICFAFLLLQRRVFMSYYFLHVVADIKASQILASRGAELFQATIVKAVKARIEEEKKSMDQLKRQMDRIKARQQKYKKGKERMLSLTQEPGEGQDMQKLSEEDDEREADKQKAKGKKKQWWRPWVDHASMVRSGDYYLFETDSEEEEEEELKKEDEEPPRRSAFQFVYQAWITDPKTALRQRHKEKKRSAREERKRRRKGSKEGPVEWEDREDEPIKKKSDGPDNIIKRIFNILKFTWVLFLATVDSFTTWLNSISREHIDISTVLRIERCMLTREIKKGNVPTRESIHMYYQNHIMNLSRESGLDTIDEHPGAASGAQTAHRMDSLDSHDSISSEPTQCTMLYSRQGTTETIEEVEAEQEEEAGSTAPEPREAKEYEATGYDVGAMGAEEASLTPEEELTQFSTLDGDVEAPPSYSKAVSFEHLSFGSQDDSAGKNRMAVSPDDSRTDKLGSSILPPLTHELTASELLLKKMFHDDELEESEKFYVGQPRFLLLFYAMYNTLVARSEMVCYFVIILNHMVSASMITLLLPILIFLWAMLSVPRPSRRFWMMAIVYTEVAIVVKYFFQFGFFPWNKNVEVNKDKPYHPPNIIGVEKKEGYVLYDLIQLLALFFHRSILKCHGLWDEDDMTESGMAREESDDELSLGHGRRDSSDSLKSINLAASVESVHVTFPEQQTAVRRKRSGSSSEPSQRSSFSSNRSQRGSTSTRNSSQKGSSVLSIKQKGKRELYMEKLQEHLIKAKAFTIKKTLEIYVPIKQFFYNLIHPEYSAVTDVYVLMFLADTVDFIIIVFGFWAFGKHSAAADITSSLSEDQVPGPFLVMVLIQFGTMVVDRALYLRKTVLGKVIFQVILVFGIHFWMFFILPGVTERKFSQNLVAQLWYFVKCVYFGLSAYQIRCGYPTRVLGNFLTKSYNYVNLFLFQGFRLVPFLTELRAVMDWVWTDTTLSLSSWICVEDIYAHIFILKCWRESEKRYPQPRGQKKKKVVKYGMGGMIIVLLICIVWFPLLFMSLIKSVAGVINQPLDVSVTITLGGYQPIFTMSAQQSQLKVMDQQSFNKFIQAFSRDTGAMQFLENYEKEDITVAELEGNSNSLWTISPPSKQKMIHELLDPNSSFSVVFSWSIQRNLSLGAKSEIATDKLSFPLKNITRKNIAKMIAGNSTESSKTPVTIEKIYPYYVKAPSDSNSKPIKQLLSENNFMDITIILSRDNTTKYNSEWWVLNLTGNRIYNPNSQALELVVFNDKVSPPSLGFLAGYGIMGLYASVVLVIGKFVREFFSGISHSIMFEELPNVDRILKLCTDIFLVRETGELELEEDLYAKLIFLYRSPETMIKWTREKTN

endogenous PIEZO2 = molecular target: T1, endogenous PIEZO2 (Homo sapiens, UniProt Q9H5I5); experiment: Whole-cell patch-clamp of mechanically activated currents in human iPSC-derived neurons; type: cell-based
T1 construct: endogenous in cells; host or cells: sensory neurons differentiated from human WTC11 iPSC line
T1 sequence (Q9H5I5 whole entry): as above
From the text: Human iPSC-derived neurons: For generating human peripheral sensory neuron cultures, a version of the healthy control WTC11 iPSC line was used. This line was previously engineered to harbor a doxycycline-inducible NGN2-BRN3A construct that enables rapid and efficient sensory neuron differentiation. Undifferentiated iPSCs were maintained in E8 flex medium (invitrogen) on polystyrene plates coated with Matrigel® (Corning). The medium was exchanged every 1-3 days, and the cells were passaged every 4-7 days with Accutase® (Invitrogen) and plated overnight with 10 μM of the ROCK-inhibitor Y-27632 (Tocris). For sensory neuron differentiation, iPSCs were seeded at 20,000 cells·(cm2)−1 in neural differentiation medium (NDM) on Matrigel®-coated plates. The cells were then re-plated after 48 hours at 50,000 cells·(cm^2)^−1 onto dishes coated with polyethylenimine (Sigma-Aldrich) and laminin (Invitrogen). NDM consisted of (all from Invitrogen) 1:1 DMEM/F12 and Neurobasal™ medium supplemented with N2, B27, and GlutaMAX™ at manufacturer-recommended dilution. 2 μg·ml^−1 doxycycline (Clontech) was included in the medium for the duration of the culture, 10 μM.

human PIEZO2 = human PIEZO2 (Homo sapiens, UniProt Q9H5I5); experiment: Whole-cell patch-clamp of N2A^Piezo1−/− cells transfected with human Piezo2; details: 300 μM; 18 h
human PIEZO2, sequence (Q9H5I5 whole entry): as above

Piezo2 V16 = experiment: Whole-cell patch-clamp of N2A^Piezo1−/− cells transfected with Piezo2 V16; details: 300 μM; 18 h
[6] = also human Piezo2 in N2A^Piezo1−/− cells (FIG. 14c-d)

effect on displacement threshold [5]: increasing the displacement threshold
effect on PIEZO2 currents (endogenous PIEZO2; 50 μM each day for 5 days): significantly decreased PIEZO2 currents
mechano-currents of human PIEZO2 (human PIEZO2): confirmed these results
SMILES: CCCCCCCCCCCCCCCCC(=O)O [MA, heptadecanoic acid]
effect on mechano-activated currents [1]: decreases mechano-activated currents in rat DRG neurons; also recorded: inhibit all mechanosensitive currents
voltage-activated inward Na+ and outward K+ currents [2]: did not change voltage-activated inward Na+ and outward K+ currents
thermal withdrawal latencies / hyper-responsiveness to heat (mice [3]): did not affect the ability of mice to sense thermal stimuli; also recorded: has no effect on this hyper-responsiveness to heat; also recorded: had no effect on thermal withdrawal latencies
responses to von Frey filaments after topical AITC (mice [4]): does not increase hyper-responsivity to punctate stimuli; also recorded: responded with sensitivities similar to their basal response
effect on mechano-activated (endogenous PIEZO2) currents [5]: decreases mechano-activated currents; also recorded: decreases endogenous PIEZO2 currents
effect on endogenous PIEZO2 currents (endogenous PIEZO2; 300 and 600 μM overnight): significantly reduced endogenous PIEZO2 currents
mechanical threshold needed to activate the human channel (endogenous PIEZO2; [6]): increased the mechanical threshold needed to activate the human channel
time constant of inactivation (endogenous PIEZO2; [6]): without altering the time constant of inactivation
effect on activity of Piezo2 V16 (Piezo2 V16): inhibited the activity
